Assay results reported in ChEMBL document CHEMBL6109153, “Development of Membrane-Targeting Osthole Derivatives Containing Pyridinium Quaternary Ammonium Moieties with Potent Anti-Methicillin-Resistant Staphylococcus aureus Properties” (J Med Chem, 2025).
Active and inactive are the calls of the source. The rule behind the calls is not given here.

Tests used:
Staphylococcus aureus [1] = assay: Induction of bacterial eradication in methicillin-resistant Staphylococcus aureus M11 at 4 times MIC incubated for 8 hrs by time-kill assay; format: functional, organism-based
Staphylococcus aureus [2] = assay: Antibacterial activity against methicillin-resistant Staphylococcus aureus M11 infected in BALB/c mouse model of Sepsis assessed as reduction in bacterial load in skin tissues at 4 mg/kg measured after 24 hrs; format: functional
Staphylococcus aureus [3] = assay: Antibacterial activity against methicillin-resistant Staphylococcus aureus M13 incubated for 16 to 20 hrs by broth microdilution method; format: functional; conditions: time 16-20 hrs
[4] = Toxicity in BALB/c mouse model of Sepsis infected with methicillin-resistant Staphylococcus aureus M11 assessed as pathological change in heart at 4 to 8 mg/kg measured after 24 hrs by H and E staining based analysis; format: organism-based; conditions: in vivo, dose 4-8 mg/kg
[5] = Hemolytic activity against sheep erythrocytes; format: toxicity, cell-based, Ovis aries, Erythrocyte
Staphylococcus aureus [6] = assay: Bactericidal activity against methicillin-resistant Staphylococcus aureus M11 at 8 ug/ml measured up to 6 hrs in presence of 50% plasma; format: functional, organism-based; conditions: dose 8.0 µg/ml
Staphylococcus aureus [7] = assay: Antibacterial activity against methicillin-resistant Staphylococcus aureus M11 infected in BALB/c mouse model of Sepsis measured after 24 hrs; format: functional, organism-based; conditions: dose 4-8 mg/kg
[8] = Toxicity in BALB/c mouse model of Sepsis infected with methicillin-resistant Staphylococcus aureus M11 assessed as lesions in spleen at 4 to 8 mg/kg measured after 24 hrs by H and E staining based analysis; format: organism-based; conditions: in vivo, dose 4-8 mg/kg
Staphylococcus aureus [9] = assay: Depolarization of cell membrane in methicillin-resistant Staphylococcus aureus M11 assessed as increase in fluorescence intensity incubated for 30 mins by DiSC3(5) dye based analysis; format: functional, organism-based
Staphylococcus aureus [10] = assay: Antibacterial activity against methicillin-resistant Staphylococcus aureus M11 infected in BALB/c mouse model of Sepsis assessed as reduction in swelling in inner epidermal abscesses at 4 mg/kg measured after 24 hrs; format: functional, organism-based
Staphylococcus aureus [11] = assay: Antibacterial activity against methicillin-resistant Staphylococcus aureus M16 incubated for 16 to 20 hrs by broth microdilution method; format: functional; conditions: time 16-20 hrs
Staphylococcus aureus [12] = assay: Induction of bacterial eradication in methicillin-resistant Staphylococcus aureus M11 at 8 times MIC incubated for 4 hrs by time-kill assay; format: functional, organism-based
[13] = Cytotoxicity against human L02 cells assessed as cell survival rate at 32 times MIC incubated for 24 hrs by CCK8 assay; format: toxicity, cell-based; conditions: read-out: Survival
Staphylococcus aureus [14] = assay: Antibacterial activity against methicillin-resistant Staphylococcus aureus M11 up to 128 ug/ml in presence of 32 ug/ml cardiolipin incubated for 16 to 18 hrs; format: functional; conditions: dose <= 128 µg/ml, time 16-18 hrs
Staphylococcus aureus [15] = assay: Disruption of cell membrane in methicillin-resistant Staphylococcus aureus M11 assessed as cell membrane rupture at 4 ug/ml incubated for 4 hrs by SEM analysis; format: functional, organism-based; conditions: dose 4.0 µg/ml
[16] = Toxicity in BALB/c mouse model of Sepsis infected with methicillin-resistant Staphylococcus aureus M11 assessed as pathological change in liver at 4 to 8 mg/kg measured after 24 hrs by H and E staining based analysis; format: organism-based; conditions: in vivo, dose 4-8 mg/kg
[17] = Toxicity in BALB/c mouse model of Sepsis infected with methicillin-resistant Staphylococcus aureus M11 assessed as lesions in kidney at 4 to 8 mg/kg measured after 24 hrs by H and E staining based analysis; format: organism-based; conditions: in vivo, dose 4-8 mg/kg
[18] = Toxicity in BALB/c mouse model of Sepsis infected with methicillin-resistant Staphylococcus aureus M11 assessed as lesions in liver at 4 to 8 mg/kg measured after 24 hrs by H and E staining based analysis; format: organism-based; conditions: in vivo, dose 4-8 mg/kg
[19] = Toxicity in BALB/c mouse assessed as glossy fur at 5 to 40 mg/kg, ip measured for 7 days; format: organism-based; conditions: in vivo, 168 h, dose 5-40 mg/kg, time 7 day
Staphylococcus aureus [20] = assay: Antibacterial activity against Staphylococcus aureus ATCC 29213 incubated for 16 to 20 hrs by broth microdilution method; format: functional; conditions: time 16-20 hrs
Staphylococcus aureus [21] = assay: Antibacterial activity against methicillin-resistant Staphylococcus aureus M11 infected in BALB/c mouse model of Sepsis assessed as reduction in IL-6 level measured after 24 hrs; format: functional, organism-based; conditions: dose 4-8 mg/kg
Staphylococcus aureus [22] = assay: Antibacterial activity against methicillin-resistant Staphylococcus aureus M11 infected in BALB/c mouse model of Sepsis assessed as reduction in TNF-alpha level measured after 24 hrs; format: functional, organism-based; conditions: dose 4-8 mg/kg
Staphylococcus aureus [23] = assay: Induction of ROS production in methicillin-resistant Staphylococcus aureus M11 incubated for 1 hr by DCFH-DA probe based analysis; format: functional, organism-based; conditions: dose <= 32.0 µg/ml
Staphylococcus aureus [24] = assay: Antibacterial activity against methicillin-resistant Staphylococcus aureus M11 up to 128 ug/ml in presence of peptidoglycan incubated for 16 to 18 hrs; format: functional, organism-based; conditions: dose <= 128.0 µg/ml, time 16-18 hrs
[25] = Toxicity in BALB/c mouse model of Sepsis infected with methicillin-resistant Staphylococcus aureus M11 assessed as lesions in heart at 4 to 8 mg/kg measured after 24 hrs by H and E staining based analysis; format: organism-based; conditions: in vivo, dose 4-8 mg/kg
Staphylococcus aureus [26] = assay: Antibacterial activity against methicillin-resistant Staphylococcus aureus M11 infected in BALB/c mouse model of Sepsis assessed as restoration of smoothness in outer skin at 8 mg/kg measured after 24 hrs; format: functional, organism-based
Staphylococcus aureus [27] = assay: Antibacterial activity against methicillin-resistant Staphylococcus aureus M11 up to 128 ug/ml in presence of 128 ug/ml peptidoglycan incubated for 16 to 18 hrs; format: functional; conditions: dose <= 128 µg/ml, time 16-18 hrs
Staphylococcus aureus [28] = assay: Antibacterial activity against methicillin-resistant Staphylococcus aureus M11 infected in BALB/c mouse model of Sepsis assessed as reduction in inflammatory cell infiltration in skin tissues at 4 to 8 mg/kg measured after 24 hrs by H and E staining based analysis; format: functional, organism-based; conditions: dose 4-8 mg/kg
Staphylococcus aureus [29] = assay: Antibacterial activity against methicillin-resistant Staphylococcus aureus M22 incubated for 16 to 20 hrs by broth microdilution method; format: functional; conditions: time 16-20 hrs
[30] = Toxicity in BALB/c mouse assessed as maximum safe dose administered intraperitoneally measured for 7 days; conditions: in vivo, route ip, time 7 day
Staphylococcus aureus [31] = assay: Disruption of cell membrane in methicillin-resistant Staphylococcus aureus M11 assessed as fold increase in protein leakage at 4 ug/ml incubated for 4 hrs by micro-spectrophotometric analysis relative to control; format: functional; conditions: dose 4 µg/ml
Staphylococcus aureus [32] = assay: Antibacterial activity against methicillin-resistant Staphylococcus aureus M11 infected in BALB/c mouse model of Sepsis assessed as reduction in bacterial load in skin tissues at 8 mg/kg measured after 24 hrs; format: functional
Staphylococcus aureus [33] = assay: Induction of ROS production in methicillin-resistant Staphylococcus aureus M11 assessed as fold increase at 32 ug/ml incubated for 1 hr by DCFH-DA probe based analysis relative to control; format: functional; conditions: dose 32 µg/ml
[34] = Toxicity in BALB/c mouse assessed as adverse reactions at 5 to 40 mg/kg, ip measured for 7 days; format: organism-based; conditions: in vivo, 168 h, dose 5-40 mg/kg, time 7 day
Staphylococcus aureus [35] = assay: Induction of cell permeability in methicillin-resistant Staphylococcus aureus M11 assessed as increase in fluorescence intensity by SYTOX Green dye based analysis; format: functional, organism-based
Staphylococcus aureus [36] = assay: Induction of resistance development in Staphylococcus aureus ATCC 29213 at 0.5 times MIC measured after 20 passages by broth microdilution method; format: functional, organism-based
Staphylococcus aureus [37] = assay: Antibacterial activity against methicillin-resistant Staphylococcus aureus M11 infected in BALB/c mouse model of Sepsis assessed as reduction in redness in inner epidermal abscesses at 4 mg/kg measured after 24 hrs; format: functional, organism-based

CCCCCNC(=O)C[n+]1ccc(SCCCCCOc2ccc3ccc(=O)oc3c2CC=C(C)C)cc1.[Br-]
Activity (Staphylococcus aureus [1]): Active | Activity (Staphylococcus aureus [2]): 1.882 log10CFU/g | MIC (Staphylococcus aureus [3]): 1 µg/mL | Activity [4]: Non-toxic | HC50 [5]: > 160 µg/mL | Activity (Staphylococcus aureus [6]): Active | Activity (Staphylococcus aureus [7]): Dose-dependent-effect | Activity [8]: Non-toxic | Activity (Staphylococcus aureus [9]): Dose-dependent-effect; Activity Was Observed Higher Than Melittin | Activity (Staphylococcus aureus [10]): Active | MIC (Staphylococcus aureus [11]): 0.5 µg/mL | Activity (Staphylococcus aureus [12]): Active | viability at 24 h, 32 times MIC [13]: > 80% | MIC (Staphylococcus aureus [14]): 1 µg/mL | Activity (Staphylococcus aureus [15]): Active | Activity [16]: Non-toxic | Activity [17]: Non-toxic | Activity [18]: Non-toxic | Activity [19]: Non-toxic | MIC (Staphylococcus aureus [20]): 1 µg/mL | Activity (Staphylococcus aureus [21]): Dose-dependent-effect; Compound Has Slightly Greater Efficacy Than Vancomycin | Activity (Staphylococcus aureus [22]): Dose-dependent-effect; Compound Has Slightly Greater Efficacy Than Vancomycin | Activity (Staphylococcus aureus [23]): Dose-dependent-effect | Activity (Staphylococcus aureus [24]): Active; Compound Showed Only Minor Or No Change In Mic | Activity [25]: Non-toxic | Activity (Staphylococcus aureus [26]): Active | MIC (Staphylococcus aureus [27]): 16 µg/mL | Activity (Staphylococcus aureus [28]): Active | MIC (Staphylococcus aureus [29]): 0.5 µg/mL | MTD at 168 h [30]: 10 mg/kg | fold change (FC) (Staphylococcus aureus [31]): ~4 | Activity (Staphylococcus aureus [32]): 3.828 log10CFU/g | fold change (FC) (Staphylococcus aureus [33]): 1.8 | Activity [34]: Non-toxic | Activity (Staphylococcus aureus [35]): Dose-dependent-effect | Activity (Staphylococcus aureus [36]): inactive | Activity (Staphylococcus aureus [37]): Active

CC(C)=CCc1c(OCCCCSc2cc[n+](CC(=O)N(CC(C)C)CC(C)C)cc2)ccc2ccc(=O)oc12.[Br-]
Activity (Staphylococcus aureus [1]): Active | Activity (Staphylococcus aureus [2]): 1.948 log10CFU/g | MIC (Staphylococcus aureus [3]): 1 µg/mL | Activity [4]: Non-toxic | HC50 [5]: > 160 µg/mL | Activity (Staphylococcus aureus [6]): Active | Activity (Staphylococcus aureus [7]): Dose-dependent-effect | Activity [8]: Non-toxic | Activity (Staphylococcus aureus [9]): Dose-dependent-effect; Activity Was Observed Higher Than Melittin | Activity (Staphylococcus aureus [10]): Active | MIC (Staphylococcus aureus [11]): 0.5 µg/mL | Activity (Staphylococcus aureus [12]): Active | viability at 24 h, 32 times MIC [13]: > 80% | MIC (Staphylococcus aureus [14]): 1 µg/mL | Activity (Staphylococcus aureus [15]): Active | Activity [16]: Non-toxic | Activity [17]: Non-toxic | Activity [18]: Non-toxic | Activity [19]: Non-toxic | MIC (Staphylococcus aureus [20]): 0.5 µg/mL | Activity (Staphylococcus aureus [21]): Dose-dependent-effect; Compound Has Slightly Greater Efficacy Than Vancomycin | Activity (Staphylococcus aureus [22]): Dose-dependent-effect; Compound Has Slightly Greater Efficacy Than Vancomycin | Activity (Staphylococcus aureus [23]): Dose-dependent-effect | Activity (Staphylococcus aureus [24]): Active; Compound Showed Only Minor Or No Change In Mic | Activity [25]: Non-toxic | Activity (Staphylococcus aureus [26]): Active | MIC (Staphylococcus aureus [27]): 16 µg/mL | Activity (Staphylococcus aureus [28]): Active | MIC (Staphylococcus aureus [29]): 0.5 µg/mL | MTD at 168 h [30]: 30 mg/kg | fold change (FC) (Staphylococcus aureus [31]): ~4 | Activity (Staphylococcus aureus [32]): 4.252 log10CFU/g | fold change (FC) (Staphylococcus aureus [33]): 2 | Activity [34]: Non-toxic | Activity (Staphylococcus aureus [35]): Dose-dependent-effect | Activity (Staphylococcus aureus [36]): inactive | Activity (Staphylococcus aureus [37]): Active
